Experiments:
[1] = Heating of strontium malonate sesquihydrate to remove bound crystal water; format: physicochemical
Protocol: The crystal water was irreversibly detached from the malonate at temperatures above approx. 70° C. Thus, anhydrous strontium malonate was produced in high yield and high purity by boiling a solution of strontium malonate.

[2] = system: new vertebral fracture; settings: cited from earlier work

Row | SMILES | temperature above which crystal water is irreversibly detached [1] | RR of new vertebral fracture vs placebo ([2]; 95% CI=0.48-0.73, P<0.001) | serum cross-linked C terminal telopeptides of type I collagen (CTX, marker of bone resorption) ([2]; clinical studies, serum) | bone formation marker BSAP ([2]; clinical studies) | patients who sustained a new vertebral fracture ([2]; strontium treated group, vs 222 in the placebo group, more than 7000 individuals)
1 | O.O.O.O=C([O-])CC(=O)[O-].O=C([O-])CC(=O)[O-].[Sr+2].[Sr+2] [strontium malonate sesquihydrate] | > 70 °C | – | – | – | –
2 | N#Cc1c(N(CC(=O)[O-])CC(=O)[O-])sc(C(=O)[O-])c1CC(=O)[O-].[Sr+2].[Sr+2] [strontium ranelate] | – | 0.59 | decreased | increased | 139 patients

— US20090137678A1, “HIGH YIELD SYNTHESIS METHODS FOR PRODUCING ORGANIC SALTS OF STRONTIUM” (priority 2005, published 2009)
